Assay results as given in patent publication USRE47689E1, “Compounds for treating spinal muscular atrophy” (PTC Therapeutics, Inc., priority 2011, dated 2019).

Legend:
Smn protein = Smn protein levels in tissues of Δ7 SMA mice of the survival study; type: in vivo, mouse; details: neonatal Δ7 SMA mice; brain and muscle; treated until P47-55 (Compound 35), until P68 (Compound 626)
Experimental: Protocol. The tissue samples in Safe-Lock tubes are weighed and the volume of RIPA buffer containing the protease inhibitor cocktail is added based on the weight to volume ratios for each type of tissue: Brain (50 mg/mL), Muscle (50 mg/mL) and Spinal Cord (25 mg/mL).
Tissues are homogenized using the TissueLyzer by bead milling. 5 mm stainless steel beads are added to the sample and shaken vigorously for 5 minutes at 30 Hz in the TissueLyzer. The samples are then centrifuged for 20 minutes at 14,000×g in a microcentrifuge and the homogenates transferred to the PCR plate. […] Fluorescence for each well of the plate at 665 nm and 620 nm is measured on an EnVision multilabel plate reader (Perkin-Elmer). The total protein in the tissue homogenate is measured using the BCA assay according to the manufacturer's protocol.
The normalized fluorescence signal is calculated for each sample, Blank and vehicle control well by dividing the signal at 665 nm by the signal at 620 nm. Normalizing the signal accounts for possible fluorescence quenching due to the matrix effect of the tissue homogenate. […] The ΔF value for each tissue sample well is divided by the total protein quantity (determined using the BCA assay) for that tissue sample. […]
Protocol. […] The number of surviving mice in each group is recorded every day and plotted as a percent of total number of mice. […]

[1] = system: gems (Smn-dependent nuclear speckles); test: Gems count (Smn-dependent nuclear speckle count) assay; type: cell-based, human; details: SMA Type 1 patient fibroblasts; 48 hours; fluorescence microscopy
Source text: The level of Smn protein directly correlates with the amount of nuclear foci, also known as gems, produced upon staining the cell with a fluorescently labeled anti-Smn antibody (Liu and Dreyfuss, EMBO J., 1996, 15:3555). Gems are multi-protein complexes whose formation is nucleated by the Smn protein and the gems count assay is used to evaluate the level of Smn protein in the cell. As described herein, the gems count assay is used to quantify the level of Smn protein in SMA patient fibroblast cells treated with a test compound.
Protocol: Cells are thawed and incubated in DMEM-10% FBS for 72 hours, then trypsinized, counted and resuspended to 100,000 cells/mL in DMEM-10% FBS. 2 mL of the cell suspension is plated in a 6-well cell culture plate with a sterile cover slip and incubated for 3 to 5 hours. Test compounds are serially diluted 3.16-fold in 100% DMSO to generate a 7-point dilution curve. […]
Cell culture medium is aspirated from the wells containing cover slips and gently washed three times with cold PBS. […] The number of gems is counted per ≥150 nuclei and % activation is calculated using DMSO and 10 nM bortezomib as controls. For each test compound, the cells are examined at all wavelengths to identify test compounds with inherent fluorescence.

Compound | Smn protein expression in tissues relative to vehicle treated and age-matched heterozygous mice (Smn protein) | number of gems relative to DMSO [1]
CC(C)NCCc1ccc2cc(-c3nc4c(Cl)cccc4s3)c(=O)oc2c1 [Cpd 35, 3-(4-chloro-1,3-benzothiazol-2-yl)-7-[2-(propan-2-ylamino)ethyl]-2H-chromen-2-one] | increased Smn protein expression | progressively more gems relative to cells treated with DMSO
CCN1CCN(c2ccc3cc(-c4cn5cc(C)nc(C)c5n4)c(=O)oc3c2)C[C@@H]1C [Cpd 626, 3-(6,8-dimethylimidazo[1,2-a]pyrazin-2-yl)-7-[(3S)-4-ethyl-3-methylpiperazin-1-yl]-2H-chromen-2-one] | increased Smn protein expression | progressively more gems relative to cells treated with DMSO
